The text below walks through data of US5242945A, “Tetronic and thiotetronic acid derivatives as phospholipase A2 inhibitors” (American Home Products Corporation, priority 1991, dated 1993).

One test deals with T1, human platelet PLA2 (Homo sapiens, UniProt P14555).
T1 construct: platelet acid extract PLA2; from tissue; host or cells: human platelets, semipurified acid extract
T1 sequence (P14555 21-144): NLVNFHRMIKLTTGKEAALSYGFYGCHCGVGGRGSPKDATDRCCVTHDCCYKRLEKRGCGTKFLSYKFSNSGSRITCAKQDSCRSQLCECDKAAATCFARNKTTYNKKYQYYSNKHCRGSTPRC
Kind of test: in vitro isolated phospholipase A2 assay, human platelet PLA2. The class given is biochemical. Particulars: for inhibition at 10 µM / inhibition at 50 µM: read-out: % Inhibition HP (human platelet). The procedure: (§1) The compounds of the invention are tested in an in vitro isolated phospholipase A2 assay to determine the ability of the test compounds to inhibit the release of arachidonic acid from an arachidonic acid-containing substrate by the action of phospholipase A2 enzyme from human and non-human sources.
(§2) Into a 15 mL polypropylene tube are added the following:
(§3) ^3 H-AA E. coli substrate^1
(§4) Tris-HCl (0.5 M) pH 7.5^3
(§5) PLA2 25 Volume yielding 12%
(§6) 100 hydrolysis in 10 min.
(§7) *pre-incubate at room temperature 30 min prior to substrate addition.
(§8) ^6 Two human PLA2 enzymes are used: a) Semipurified human
(§9) platelet acid extract PLA2 (in 10 mM sodium acetate buffer, pH 4.5).
(§10) Remove protein precipitate by centrifugation at about 2200 rpm for 10
(§11) minutes. b) Purified human synovial fluid.
(§12) Incubate the 100 μL reaction mixture for 10 minutes at 37° C. in a shaking water bath. The reaction is terminated by the addition of 2 mL tetrahydrofuran, followed by vortexing. NH2 columns (100 μg/mL--Analytichem International) are conditioned with 0.5 mL tetrahydrofuran followed by 0.5 mL tetrahydrofuran/water (2 mL:0.1 mL, v/v).
(§13) The sample is loaded onto the columns and slowly drawn through them. The hydrolyzed arachidonic acid retained in the columns is eluted therefrom with 1 mL tetrahydrofuran/glacial acetic acid (2%). The arachidonic acid is transferred to scintillation vials and quantitated by β-counting analysis. A "total counts" sample is prepared by pipetting 25 μL ^3 H-arachidonate E. coli directly into a scintillation vial to which is added 1 mL tetrahydrofuran. 10 mL aquasol (scintillation cocktail) is added to all samples.

The target in test [1] is T2, human synovial fluid PLA2 (Homo sapiens, UniProt P14555).
T2 construct: Purified human synovial fluid; from tissue; host or cells: human synovial fluid
T2 sequence (P14555 21-144): T1 sequence (P14555 21-144)
The test can be described thus: in vitro isolated phospholipase A2 assay, human synovial fluid PLA2. The class given is biochemical. Particulars: for inhibition at 10 µM / inhibition at 50 µM: read-out: % Inhibition HSF (human synovial fluid). As for the experimental part: as §1, §2, §3, §4, §5, §6, §7, §8, §9, §10, §11, §12, §13

The mark [2] stands for this setting: at 10 μM, + values given without explanation.

Regarding “4-Hydroxy-3-(1-oxoeicosanoyl)-2(5H)-furanone [Example 11]”, the “% Inhibition HP (human platelet)” value at human platelet PLA2 (setting [2]) was 6.7%. Besides, the “% Inhibition HSF (human synovial fluid)” value in test [1] (setting [2]) is reported as 32%. Take `CCCCCCCC[C@@H]1C[C@@H]1CCCCCCCC(=O)C1=C(O)CSC1=O` (relative stereo) [Example 52, 4-Hydroxy-3-[(Z)-8-(2-octylcyclopropyl)-1-oxooctyl]-2(5H)-thiophenone]: the inhibition at 10 µM came out at 8.4% at human platelet PLA2 (setting [2]) and 18.6% in test [1] (setting [2]). In the case of `CCCCC[C@@H]1C[C@@H]1CC(=O)C1=C(O)COC1=O` (relative stereo) [Example 53, 4-Hydroxy-3-[(Z)-1-oxo-2-(2-pentylcyclopropy)ethyl]-2(5H)-furanone], the figures for the inhibition at 10 µM (at human platelet PLA2 (setting [2]); in test [1] (setting [2])) were 1.7% and 0.1%, respectively.

Consider `O=C(CCc1ccccc1)C1=C(O)COC1=O` [Example 2, 4-Hydroxy-3-(1-oxo-3-phenylpropyl)-2(5H)-furanone], for which the inhibition at 50 µM at human platelet PLA2 came out at 8%; in test [1], 27%. On to `O=C(COCc1ccccc1)C1=C(O)COC1=O` [Example 3, 4-Hydroxy-3-[(phenylmethoxy)acetyl]-2(5H)-furanone], for which the inhibition at 50 µM on human platelet PLA2 was 3.5%; in test [1] it was 25%. For `O=C(CCc1c[nH]c2ccccc12)C1=C(O)COC1=O` [Example 4, 4-Hydroxy-3-[3-(1H-indol-3-yl)-1-oxopropyl]-2(5H)-furanone] the same measures were 10% and 25%. Taken in the same sequence, the figures for `O=C(CCCc1c[nH]c2ccccc12)C1=C(O)COC1=O` [Example 5, 4-Hydroxy-3-[4-(1H-indol-3-yl)-1-oxobutyl]-2(5H)-furanone] were 0% and 11%. For the compound `O=C(/C=C/c1cccc(C(F)(F)F)c1)C1=C(O)COC1=O` [Example 10, (E)-4-Hydroxy-3-(1-oxo-3-(3-(trifluoromethyl)phenyl)-2-propenyl)-2 (5H)-furanone], the inhibition at 10 µM at human platelet PLA2 (setting [2]) worked out at 9.6%; in test [1] (setting [2]), 34%.

With `COc1ccc(OC)c(/C=C/C(=O)C2=C(O)COC2=O)c1` [Example 13, (E)-3-(3-(2,5-Dimethoxyphenyl)-1-oxo-2-propenyl)-4-hydroxy-2 (5H)-furanone], the figures for the inhibition at 10 µM (at human platelet PLA2 (setting [2]); in test [1] (setting [2])) were 11% and 34%, respectively.

For the compound `COc1ccc(/C=C/C(=O)C2=C(O)COC2=O)cc1OC` [Example 16, (E)-3-(3-(3,4-Dimethoxyphenyl)-1-oxo-2-propenyl)-4-hydroxy-2 (5H)-furanone], the inhibition at 10 µM is 2.1% on human platelet PLA2 (setting [2]) and 5.5% in test [1] (setting [2]). For `CCCCCCCC/C=C\CCCCCCCC(=O)C1=C(O)C(C)(C)OC1=O` [Example 17, (Z)-4-Hydroxy-5,5-dimethyl-3-(1-oxo-9-octadecenyl)-2(5H)-furanone] the same measures were 16% and 9%.

Consider `O=C(CCCCCOc1ccc(Cl)cc1)C1=C(O)COC1=O` [Example 21, 4-Hydroxy-3-[6-(4-chlorophenoxy)-1-oxohexyl]-2(5H)-furanone], for which the inhibition at 10 µM on human platelet PLA2 (setting [2]) was 2.5%; in test [1] (setting [2]), 24%. Taken in the same sequence, the figures for `CCCCCCCC/C=C\CCCCCCCC(=O)OCC(CCC(=O)C1=C(O)COC1=O)OC(=O)CCCCCCC/C=C\CCCCCCCC` (stereo not drawn) [Example 24, (Z)-9-Octadecanoic acid 5-(2,5-dihydro-4-hydroxy-3-furanyl)-5-oxo-1,2-pentanediyl ester] were 56.6% and 79.5%. Taken in the same sequence, the figures for `CCCCCCCC/C=C\CCCCCCCC(=O)OCC(CCC(=O)O)OC(=O)CCCCCCC/C=C\CCCCCCCC` (stereo not drawn) [Example 24A, 4,5-Bis[((Z)-1-oxo-9-octadecenyl)oxy]pentanoic acid] were 45.4% and 80.7%. For `CCCCCCCCC#CCCCCCCCC(=O)C1=C(O)COC1=O` [Example 27, 4-Hydroxy-3-(1-oxo-9-octadecynyl)-2(5H)-furanone] the same measures were 34.9% and 31.2%. With `CCCCCCCCCCCCCCCCCC(=O)C1=C(O)COC1=O` [Example 28, 4-Hydroxy-3-(1-oxooctadecyl)-2(5H)-furanone], the inhibition at 10 µM at human platelet PLA2 (setting [2]) was determined as 37.4%; in test [1] (setting [2]) it was 12.6%. Take `O=C(CCCCCCCCOc1ccc(Cl)cc1)C1=C(O)COC1=O` [Example 29, 3-[9-(4-Chlorophenoxy)-1-oxononyl]-4-hydroxy-2(5H)-furanone]: the inhibition at 10 µM at human platelet PLA2 (setting [2]) was found to be 20.6%; in test [1] (setting [2]) it was 33.6%. Taken in the same sequence, the figures for `CCCCCCCCCCCCNC(=O)OCC(CCC(=O)C1=C(O)COC1=O)OC(=O)NCCCCCCCCCCCC` (stereo not drawn) [Example 31, Dodecylcarbamic acid 5-(2,5-dihydro-4-hydroxy-2-oxo-3-furanyl)-5-oxo-1,2-pentanediyl ester] were 33.5% and 34.5%.

Consider `CCCCCCCCCCCCNC(=O)OCC(CCC(=O)O)OC(=O)NCCCCCCCCCCCC` (stereo not drawn) [Example 31A, 4,5-Bis[[(Dodecylamino)carbonyl]oxy]pentanoic acid], for which the inhibition at 10 µM on human platelet PLA2 (setting [2]) came out at 47.7%; in test [1] (setting [2]) it was 43.2%.

Consider `O=C(CCCCCOc1ccc(OCc2ccc(Cl)cc2)cc1)C1=C(O)COC1=O` [Example 32, 4-Hydroxy-3-[6-[4-[(4-chlorophenyl)methoxyphenoxy]]1-oxohexyl]-2(5H)-furanone], for which the inhibition at 10 µM amounted to 31.6% at human platelet PLA2 (setting [2]) and 15.1% in test [1] (setting [2]). For `CCCCCCOc1ccc(OCCCCCC(=O)C2=C(O)COC2=O)cc1` [Example 33, 4-Hydroxy-3-[6-[4-(hexyloxy)phenoxy]-1-oxohexyl]-2(5H)-furanone] the same measures were 37.1% and 10%. As to `CCCCCCCC/C=C/CCCCCCCC(=O)C1=C(O)COC1=O` [Example 36, 4-Hydroxy-3-((E)-1-oxo-9-octadecenyl)-2(5H)-furanone], the inhibition at 10 µM is 25.4% on human platelet PLA2 (setting [2]) and 10.3% in test [1] (setting [2]).

For the compound `CCCCCCCc1ccc(OCCCCCC(=O)C2=C(O)COC2=O)cc1` [Example 37, 3-[6-(4-Heptylphenoxy)-1-oxohexyl]-4-hydroxy-2(5H)-furanone], the inhibition at 10 µM at human platelet PLA2 (setting [2]) stood at 22.5%; in test [1] (setting [2]), 35.7%. For `CC(C)(C)CC(C)(C)c1ccc(OCCCCCC(=O)C2=C(O)COC2=O)cc1` [Example 39], the inhibition at 10 µM worked out at 24.4% on human platelet PLA2 (setting [2]) and 20.3% in test [1] (setting [2]).

For the compound `CCCCCCCC/C=C\CCCCCCCCNC(=O)OC(CCC(=O)O)COC/C=C(\C)CCC=C(C)C` (stereo not drawn) [Example 40A, 5-[((E)-3,7-Dimethyl-2,6-octadienyl)oxy]-4-[[((Z)-9-octadecenylamino)carbonyl]oxy]pentanoic acid], the inhibition at 10 µM at human platelet PLA2 (setting [2]) amounted to 87.7%; in test [1] (setting [2]), 74.2%.

As for `CC1=C(CC(=O)O)c2cc(F)ccc2/C1=C\c1ccc([S+](C)[O-])cc1` (stereo not drawn) [sulindac, reference compound], half-maximal inhibition in test [1] (IC50) required 30.2 µM. In other words, the double-digit micromolar range.
